Data on 3 compounds can be found in publication PMC7662385, “New Fluorene Derivatives from Dendrobium gibsonii and Their α-Glucosidase Inhibitory Activity” (Molecules, 2020).

Experiment [1] has as its target α-glucosidase. The experiment in a line: α-glucosidase inhibition assay (p-nitrophenol release from p-nitrophenol-α-D-glucopyranoside). The conditions noted are these: two-fold serial dilution; acarbose positive control; read-out: α-glucosidase inhibitory activity IC50. The class given is biochemical, Yeast. The protocol: In this study, each compound was initially tested at 100 μg/mL.
(§1) The α-glucosidase inhibition assay was performed according to previous protocols. The assay was based on the release of p-nitrophenol from p-nitrophenol-α-D-glucopyranoside (substrate). The test samples were prepared by dissolving in 50% DMSO. […] The sample solution (10 μL) and 0.1 U/mL α-glucosidase (40 μL) in phosphate buffer (pH 6.8) were added to a 96-well plate. The mixture was preincubated at 37 °C for 10 min before adding 2 mM p-nitrophenol-α-D-glucopyranoside (50 μL). Then, the reaction was incubated again at 37 °C for 20 min. Finally, 1 M Na2CO3 solution (100 μL) was added to stop the reaction. The absorbance of the mixture was determined using a microplate reader at 405 nm.

Experiment [2] has as its system α-glucosidase. The experiment in a line: α-glucosidase enzyme kinetic study (Lineweaver–Burk and secondary plots). The class given is biochemical, Yeast. As to conditions: for mode of α-glucosidase inhibition: Lineweaver–Burk plots. The protocol: Further investigation was conducted on compound 2 to study its kinetic properties with regard to the enzyme α-glucosidase using varying concentrations of the substrate.
as §1
An enzyme kinetic study was conducted based on the α-glucosidase assay as mentioned above. […] The inhibition mode was determined by double-reciprocal Lineweaver–Burk plot (1/V vs. 1/[S]). In order to estimate the Ki value, slopes of double-reciprocal lines were used to construct a secondary plot, and the Ki was calculated from the line equation of the plot.

Read-outs that look alike come from different tables or passages of the source.

Usually IC50 stands for the midpoint of a concentration-inhibition curve. The term Ki denotes a dissociation constant, usually derived from enzyme kinetics or from competition with a known ligand. Usually Km stands for the substrate concentration at which the rate is half of its maximum.

In the case of `COc1cc2c3c(c1O)CCc1cc(OC)c(OC)c(c1-3)OC21c2cccc(O)c2-c2c1cc(OC)c(O)c2OC` (centres unmarked) [Compound 2, dendrogibsol], on α-glucosidase [1], the IC50 was determined as 19.8 ± 0.9 µM. Besides, the “mode of α-glucosidase inhibition” value with α-glucosidase [2] is given as “noncompetitive”. The compound also registered a Ki on α-glucosidase [2] (from secondary plot of slopes of double-reciprocal lines) of 20.4 µM. The Vmax in the experiment with α-glucosidase [2] (inhibitor dose 11 μM, PNPG 0.25 to 2 mM) is listed as 0.086 ∆OD/min; in the experiment on α-glucosidase [2] (inhibitor dose 22 μM, PNPG 0.25 to 2 mM) it was 0.052 ∆OD/min. For the same compound, the Km in the experiment on α-glucosidase [2] (inhibitor dose 11 μM, PNPG 0.25 to 2 mM, read-out: Km) came out at 1.23 mM; with α-glucosidase [2] (inhibitor dose 22 μM, PNPG 0.25 to 2 mM, read-out: Km), 1.19 mM; in the experiment on α-glucosidase [2] (with changing inhibitor concentration, dose not given, read-out: Km as stated in text), 1.55 mM.
On to `COc1cc(O)c2c(c1)CCc1cc(O)ccc1-2` [Compound 7, lusianthridin], for which, at α-glucosidase [1], the 50% inhibitory concentration (IC50) came to 185 ± 6.9 µM.
Regarding `C[C@H]1O[C@H](O[C@H]2[C@H](O)[C@@H](O)[C@@H](O[C@H]3[C@H](O)[C@@H](O)C(O)O[C@@H]3CO)O[C@@H]2CO)[C@H](O)[C@@H](O)[C@@H]1N[C@H]1C=C(CO)[C@@H](O)[C@H](O)[C@H]1O` (some centres unmarked) [acarbose, reference compound], the “mode of α-glucosidase inhibition” value with α-glucosidase [2] is on record as “competitive”. Also, the Vmax was 0.10 ∆OD/min with α-glucosidase [2] (inhibitor dose 465 μM, PNPG 0.25 to 2 mM) and 0.11 ∆OD/min in the experiment on α-glucosidase [2] (inhibitor dose 930 μM, PNPG 0.25 to 2 mM). The Km with α-glucosidase [2] (inhibitor dose 465 μM, PNPG 0.25 to 2 mM, read-out: Km) worked out at 6.74 mM. For the same compound, the “Vmax as stated in text” value in the experiment on α-glucosidase [2] (with changing inhibitor concentration, dose not given) is reported as 0.11 ∆OD/min.
